# Data taken from patent US20250186451A1, “METHODS OF TREATING CANCER WITH IAP ANTAGONIST COMPOUNDS AND COMBINATION THERAPIES” (Otsuka Pharmaceutical Co., Ltd., priority 2022, published 2025).
# Entries after “also recorded” stand apart in the source; their conditions may differ. Read-outs that look alike come from different tables or passages of the source.
# Columns and labels:
# [1] = system: SUPT11 cells; assay: Flow cytometry: annexin V/DAPI apoptosis and bead-based absolute cell count, SUPT11
# Description: (§2) Cells were re-suspended in PBS containing CountBright beads (Invitrogen #C36950) to allow for measurement of the absolute cell number. Half-maximal inhibitory concentrations (IC50) was calculated using CalcuSyn software (BIOSOFT, Cambridge, UK).
# (§3) Combination index (CI) and IC50 were determined using Calcusyn (BIOSOFT, Cambridge, UK).
# [2] = system: leukemia initiating cells (LICs, CD45+, CD7+, CD19-, CD34+)
# [3] = system: CCRF-CEM cells; assay: Flow cytometry: annexin V/DAPI apoptosis and bead-based absolute cell count, CCRF-CEM; set-up: species or system human
# Description: as §2, §3
# [4] = system: PDX-derived cells (CD45+ bulk)
# [5] = system: MOLT16 cell line; assay: Flow cytometry: annexin V/DAPI apoptosis and bead-based absolute cell count, MOLT16; set-up: species or system human; settings: MOLT16, single agent, 5 days
# Description: as §2, §3
# [6] = system: JURKAT cells; assay: Flow cytometry: annexin V/DAPI apoptosis and bead-based absolute cell count, JURKAT; settings: single agent, 5 days
# Description: as §2
# [7] = system: LOUCY cells; assay: Flow cytometry: annexin V/DAPI apoptosis and bead-based absolute cell count, LOUCY; set-up: species or system human; settings: for IC50: Homo sapiens
# Description: (§1) Combination index and IC50 were determined using Calcusyn (BIOSOFT, Cambridge, UK).
# [8] = system: MOLT4 cells; assay: Flow cytometry: annexin V/DAPI apoptosis and bead-based absolute cell count, MOLT4; settings: MOLT4, single agent, 5 days
# Description: as §2
# [9] = system: ALL-SIL cells; assay: Flow cytometry: annexin V/DAPI apoptosis and bead-based absolute cell count, ALL-SIL; set-up: species or system human
# Description: as §1
# [10] = system: LOUCY cells; assay: Western blot analysis in LOUCY cells; assay type: cell-based, human; settings: combination = Compound I + Compound II
# From the text: Membranes were probed with specific antibodies.
# [11] = system: PF382 cells; assay: Flow cytometry: annexin V/DAPI apoptosis and bead-based absolute cell count, PF382; set-up: species or system human
# Description: as §2, §3
structure (smiles),measurement,setting,value
"C[C@@H]1C[C@H]2[C@@H]3CCC4=CC(=O)C=C[C@]4(C)[C@@]3(F)[C@@H](O)C[C@]2(C)[C@@]1(O)C(=O)CO [DEX, dexamethasone, reference compound]",EC50,"[1]; Homo sapiens, SUPT11, read-out: ED50, SUPT11 cells, DEX treatment alone",~2000 nM
same,EC50,"[1]; Homo sapiens, SUPT11, read-out: ED50, Table 2, SUPT11 cells, Combination = DEX + Compound I 1:1",2000 nM
same,cytotoxic effect,[2],62±2%
same,cell death,"[3]; CCRF-CEM (DEX-resistant), combination = Compound I:DEX 1:1",20+3%
same,cytotoxic effect,[4],58±2%
"C[C@@H]1CN(CC(=O)N2CC(C)(C)c3nc(CO)c(Cc4ccc(F)cc4)cc32)[C@@H](CN2CCOC[C@H]2C)CN1 [Compound I, 1-(6-(4-fluorobenzyl)-5-(hydroxymethyl)-3,3-dimethyl-2,3-dihydro-1H-pyrrolo [3,2-b]pyridin-1-yl)-2-((2R,5R)-5-methyl-2-(((R)-3-methylmorpholino)methyl)piperazin-1-yl)ethan-1-one]",sensitivity to Compound I,[5],least sensitive
same,IC50,"[1]; Homo sapiens, SUPT11, 120 h, Table 1, SUPT11, Compound I single agent, 5 days",309 nM
same,IC50,"[1]; Homo sapiens, SUPT11, Table 2, SUPT11 cells, Combination = DEX + Compound I 1:1",11.7 nM
same,IC50,"[1]; Table 1, SUPT11, Compound I single agent, 5 days",310 nM
same,sensitivity to Compound I,[6],least sensitive
same,IC50,"[7]; 120 h, Table 1, Loucy, Compound I single agent, 5 days",190 nM
same,IC50,"[7]; Table 4, LOUCY cells, Combination = Compound II:Compound I 1:10",190 nM
same,sensitivity to Compound I,[8],least sensitive
same,sensitivity to Compound I,"[9]; ALL-SIL, single agent, 5 days",moderate sensitivity
same,IC50,"[9]; Homo sapiens, 120 h",11800 nM
same,sensitivity to Compound I,"[3]; CCRF-CEM, single agent, 5 days",moderate sensitivity
same,IC50,"[3]; Homo sapiens, CCRF-CEM, 120 h",17800 nM
same,PARP expression (Western blot),[10],decreased expression
same,cIAP2 expression (Western blot),[10],decreased expression; also recorded: decrease
same,cleaved caspase 7 (Western blot),[10],increase
same,sensitivity to Compound I,"[11]; PF382, single agent, 5 days",least sensitive
same,apoptosis induction,"[11]; PF382, single agents or combination Compound I:DEX 1:1",no apoptosis induction
"CC1(C)CCC(CN2CCN(c3ccc(C(=O)NS(=O)(=O)c4ccc(NCC5CCOCC5)c([N+](=O)[O-])c4)c(Oc4cnc5[nH]ccc5c4)c3)CC2)=C(c2ccc(Cl)cc2)C1 [Compound II, 2-((1H-pyrrolo[2,3-b]pyridin-5-yl)oxy)-4-(4-((4′-chloro-5,5-dimethyl-3,4,5,6-tetrahydro-[1,1′-biphenyl]-2-yl)methyl)piperazin-1-yl)-N-((3-nitro-4-(((tetrahydro-2H-pyran-4-yl)methyl)amino)phenyl)sulfonyl)benzamide, reference compound]",cell death,"[7]; LOUCY, combination = Compound II:Compound I 1:10",27+0.9%
